# Measurements taken from PubChem BioAssay (NCI).
# Where “and” joins values, the source holds several entries; their conditions need not be identical. Equal entries are not always repeated.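 Five compound concentrations were applied to cells in 96-well plates for 48 hours; endpoints were derived by simple linear interpolation of the resulting dose-response curve. GI50 = concentration required for 50% inhibition of growth. The concentration for full growth arrest is given as TGI.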
# What was measured:
# Test in all cases: NCI anticancer screen, dose series, 48 h
# U251 CNS = tested on: U251 CNS
# LOX IMVI melanoma = tested on: LOX IMVI melanoma
# RXF 393 renal = tested on: RXF 393 renal
# K-562 leukemia = tested on: K-562 leukemia
# HOP-62 NSCLC = tested on: HOP-62 NSCLC
# MOLT-4 leukemia = tested on: MOLT-4 leukemia
# A549 NSCLC = tested on: A549 NSCLC
# CCRF-CEM leukemia = tested on: CCRF-CEM leukemia
# COLO 205 colon = tested on: COLO 205 colon
SMILES,TGI (U251 CNS),TGI (LOX IMVI melanoma),TGI (RXF 393 renal),TGI (K-562 leukemia),TGI (HOP-62 NSCLC),TGI (MOLT-4 leukemia),TGI (A549 NSCLC),TGI (CCRF-CEM leukemia) [µM],TGI (COLO 205 colon),GI50 (COLO 205 colon),GI50 (U251 CNS),GI50 (LOX IMVI melanoma),GI50 (RXF 393 renal),GI50 (K-562 leukemia),GI50 (HOP-62 NSCLC),GI50 (MOLT-4 leukemia),GI50 (A549 NSCLC),GI50 (CCRF-CEM leukemia)
C=C[C@@]1(C)CCC2(O)C(CCC3C2(C)CCC[C@@]3(C)COC(=O)CC(=O)OC)C1 (stereo not given in full),32.2 µM,31.1 µM,61.5 µM,63.5 µM,34 µM,36 µM,35.9 µM,> 100,,,,,,,,,,
COc1ccc(C(C#N)NC23CC4CC(CC(C4)C2)C3)cc1OC (stereo not given),> 100 µM,> 100 µM,> 100 µM,> 100 µM,> 100 µM,> 100 µM,> 100 µM,> 100,> 100 µM,,,,,,,,,
Cc1csc(/C=N/NC(=O)c2nnn(-c3ccnc4c(C(F)(F)F)cccc34)c2C)c1,> 100 µM,> 100 µM,62.7 µM,> 100 µM,> 100 µM,> 100 µM,> 100 µM,> 100,> 100 µM,34.2 µM,22.3 µM,72.2 µM,1.41 µM,35 µM,63.5 µM,48.8 µM,36.6 µM,56.8 µM
COc1cc(NS(C)(=O)=O)ccc1Nc1c2ccccc2nc2c(C)cccc12,1.15 µM and 0.868 µM,1.35 µM and 1.51 µM,1.72 µM and 3.36 µM,> 37.8 µM and 11.8 µM,1.37 µM and 1.34 µM,0.229 µM and 0.176 µM,1.25 µM and 1.04 µM,,2.59 µM and 5.16 µM,0.245 µM and 0.243 µM,0.106 µM and 0.0963 µM,0.0512 µM and 0.0544 µM,0.258 µM and 0.326 µM,0.272 µM and 0.276 µM,0.104 µM and 0.117 µM,0.0245 µM and 0.0304 µM,0.0189 µM and 0.0234 µM,0.0322 µM and 0.0364 µM
Cc1cc(Cc2cc(C)c(O)c(C)c2)cc(C)c1O,19.6 µM,33.3 µM,36.4 µM,18.8 µM,89.6 µM,27.8 µM,38.2 µM,> 100,> 100 µM,32.9 µM,3.68 µM,6.64 µM,6.47 µM,1.76 µM,7.01 µM,3.82 µM,4.32 µM,4.14 µM
O=C(/C=C1\C(=O)N(Cc2ccc([N+](=O)[O-])cc2)c2ccccc21)c1ccc(OCCN2CCCCC2)cc1,3.09 µM,2.78 µM,,2.2 µM,6.32 µM,2.73 µM,3.28 µM,2.35,3.27 µM,1.64 µM,1.72 µM,1.4 µM,,0.415 µM,2.12 µM,0.456 µM,1.68 µM,0.323 µM
O=C(Cn1c(=O)c(-c2ccccc2)nc2ccccc21)c1ccc(Cl)cc1,> 100 µM,> 100 µM,,> 100 µM,> 100 µM,> 100 µM,> 100 µM,> 100,> 100 µM,> 100 µM,37.6 µM,55 µM,,> 100 µM,33.4 µM,> 100 µM,58.3 µM,> 100 µM
CN(CCC#N)c1ccc(/C=C(\C#N)c2cccc(C(F)(F)F)c2)cc1,> 100 µM,> 100 µM,> 100 µM,> 100 µM,> 100 µM,> 100 µM,,,> 100 µM,3.81 µM,3.75 µM,3.75 µM,3.75 µM,2.69 µM,6.2 µM,3.06 µM,,
O=C(/C=C/C12c3ccccc3C(c3ccccc31)C1C(=O)N(c3ccccc3)C(=O)C12)c1ccc(Cl)cc1 (stereo not given),4.82 µM,3.25 µM,2.87 µM,> 100 µM,6.86 µM,> 100 µM,> 100 µM,> 100,3.58 µM,1.79 µM,1.84 µM,1.65 µM,1.27 µM,1.55 µM,2.45 µM,0.759 µM,2.37 µM,0.566 µM
COc1cc2c(c(OC)c1OC)C(=O)CC(c1cccc(NC(=O)c3ccc(Br)cc3)c1)O2 (stereo not given),> 100 µM,> 100 µM,> 100 µM,> 100 µM,> 100 µM,4.19 µM,> 100 µM,,> 100 µM,3.17 µM,3.07 µM,2.41 µM,4.07 µM,1.4 µM,2.89 µM,1.54 µM,3.57 µM,
Cc1c(C)c2c(c(C)c1NC(=O)/C=C\C(=O)O)CCC(C)(CCCC(C)CCCC(C)CCCC(C)C)O2 (stereo not given),3.18 µM,3.69 µM,3.23 µM,7.16 µM,3.08 µM,7.19 µM,3.62 µM,6.11,3.54 µM,1.75 µM,1.64 µM,1.87 µM,1.74 µM,2.3 µM,1.64 µM,2.06 µM,1.79 µM,1.79 µM
O=C(CCN1CCOCC1)Nc1ccc(F)cc1F,> 100 µM,> 100 µM,,> 100 µM,> 100 µM,> 100 µM,> 100 µM,,> 100 µM,,,,,,,,,
COc1cc([N+](=O)[O-])c(S(=O)(=O)O)cc1NS(=O)(=O)c1ccc(C)cc1,> 100 µM,> 100 µM,,> 100 µM,> 100 µM,> 100 µM,> 100 µM,> 100,> 100 µM,,,,,,,,,
N=CCCN(CCC=N)c1ccc(/C=C2\CN(NC(=O)c3ccc(Cl)cc3)C(c3ccccc3)=N2)cc1,76.1 µM,> 100 µM,,> 100 µM,> 100 µM,> 100 µM,> 100 µM,> 100,> 100 µM,,,,,,,,,
O=C(CC(=O)c1ccc([N+](=O)[O-])cc1)C(=O)Nc1nccs1,> 100 µM,> 100 µM,> 100 µM,> 100 µM,> 100 µM,> 100 µM,> 100 µM,> 100,> 100 µM,,,,,,,,,
O=C1c2ccccc2NC(c2cc(Cl)cc(Cl)c2O)N1CCc1ccccn1 (stereo not given),> 100 µM,> 100 µM,> 100 µM,> 100 µM,> 100 µM,,> 100 µM,,> 100 µM,,,,,,,,,

SMILES,TGI (U251 CNS),TGI (LOX IMVI melanoma),TGI (RXF 393 renal),TGI (K-562 leukemia),TGI (HOP-62 NSCLC),TGI (MOLT-4 leukemia),TGI (A549 NSCLC),TGI (CCRF-CEM leukemia) [µM],TGI (COLO 205 colon),GI50 (COLO 205 colon),GI50 (U251 CNS),GI50 (LOX IMVI melanoma),GI50 (RXF 393 renal),GI50 (K-562 leukemia),GI50 (HOP-62 NSCLC),GI50 (MOLT-4 leukemia),GI50 (A549 NSCLC),GI50 (CCRF-CEM leukemia)
C=C1C(=O)O[C@H]2[C@H]1CC/C(Cn1cc(CNCCc3c[nH]c4ccc(Cl)cc34)nn1)=C\CC[C@@]1(C)O[C@@H]21,20.9 µM,16 µM,9.69 µM,25.2 µM,> 100 µM,6.56 µM,> 100 µM,5.08,3.75 µM,1.96 µM,7.59 µM,3.56 µM,2.66 µM,2.91 µM,67.5 µM,2.54 µM,34.9 µM,1.72 µM
COc1cc(N2CCN(C(C)C)CC2)ccc1Nc1nc(Nc2cccc3ncccc23)c2cc[nH]c2n1,15.1 µM,6.95 µM,9.38 µM,18.4 µM,> 14.9 µM,> 23.2 µM,15.6 µM,> 22.4,5.96 µM,1.38 µM,4.54 µM,3.3 µM,3.93 µM,5.34 µM,3.18 µM,7.51 µM,2.92 µM,6.36 µM
Cn1cc(C2=C(c3c4n(c5ccccc35)CCCC4)C(=O)NC2=O)c2ccccc21,> 25 µM,> 25 µM,> 16.1 µM,> 25 µM,> 25 µM,> 25 µM,> 25 µM,> 25,> 25 µM,10.7 µM,13.2 µM,16.6 µM,5.86 µM,5.32 µM,> 17.6 µM,> 17.2 µM,12.5 µM,> 15.3 µM
CCCCN(CCCC)c1ccc(C(=N)c2ccc(N(C)C)cc2)cc1,1.42 µM,2.02 µM,2.61 µM,,2.69 µM,,1.97 µM,3.24,1.65 µM,0.455 µM,0.46 µM,0.536 µM,1.25 µM,,1.33 µM,,0.7 µM,0.544 µM
NC(=O)c1cc(-c2ccncc2)cc(-c2ccccc2)c1N,> 25 µM,> 25 µM,24.9 µM,> 25 µM,> 25 µM,> 25 µM,> 25 µM,> 25,> 25 µM,22.1 µM,> 25 µM,> 22.7 µM,5.41 µM,> 20.1 µM,> 25 µM,20 µM,> 23.2 µM,> 25 µM
C/C(=N/NC(=O)c1ccncc1)c1ccc(NC(=O)C(=O)Nn2c(=S)[nH]c3ccccc3c2=O)cc1,> 100 µM,> 100 µM,> 100 µM,,> 100 µM,> 100 µM,> 100 µM,> 100,> 100 µM,,,,,,,,,
COc1cccc(C(=O)Nc2ccc(CN3CCc4nc5cc(OC)c(OC)cc5cc43)cc2)c1,12.7 µM,6.5 µM,15.3 µM,15.5 µM,37.8 µM,10.7 µM,> 100 µM,36.5,7.03 µM,2.69 µM,3.17 µM,2.37 µM,2.74 µM,3.72 µM,13.5 µM,2.85 µM,3.78 µM,3.35 µM
CN(C)c1ccc2c(c1)CN1C(=O)c3ccccc3C1=N2,> 100 µM,> 100 µM,> 100 µM,,,> 100 µM,> 100 µM,,> 100 µM,> 100 µM,> 100 µM,> 100 µM,> 100 µM,,,> 100 µM,> 100 µM,
CCOC(=O)C1=C(C)NC2SC(=O)/C(=C\c3ccccc3Cl)N2C1c1ccccc1 (stereo not given),> 100 µM,> 100 µM,> 100 µM,> 100 µM,> 100 µM,,> 100 µM,> 100,> 100 µM,> 100 µM,> 100 µM,> 100 µM,> 100 µM,> 100 µM,> 100 µM,,> 100 µM,> 100 µM
COc1cc2ccccc2c2cc([N+](=O)[O-])oc12,7.14 µM,3.93 µM,0.844 µM,> 38.9 µM,32 µM,3.95 µM,22.7 µM,,2.36 µM,,,,,,,,,
Cc1onc(-c2c(F)cccc2Cl)c1-c1ncc(-c2ccc(Cl)cc2)o1,,,90.7 µM,> 100 µM,> 100 µM,> 100 µM,> 100 µM,> 100,> 100 µM,4.11 µM,,,6.45 µM,4.35 µM,8.45 µM,4.61 µM,4.34 µM,3.81 µM
COc1ccc(-c2nn(-c3ccc(NC(=O)c4ccc(Cl)c(C(F)(F)F)c4)cc3)cc2-c2ccncc2)cc1Cl,7.82 µM,,0.489 µM,> 100 µM,4.88 µM,> 100 µM,> 100 µM,> 100,3.48 µM,1.27 µM,0.408 µM,,0.168 µM,0.706 µM,0.423 µM,0.388 µM,1.81 µM,0.582 µM
Cc1cc(N2CCN(C)CC2)nc(NCc2cc(Nc3ccnc4cc(Cl)ccc34)ccc2F)n1,3.73 µM,3.14 µM,3.82 µM,5.7 µM,3.83 µM,> 100 µM,5.3 µM,,2.12 µM,0.71 µM,1.87 µM,1.67 µM,1.63 µM,1.9 µM,1.63 µM,1.9 µM,2.34 µM,
N=Nc1c(OC(=O)Nc2ccccc2)[nH]c2ccccc12,30.8 µM,33.7 µM,28.7 µM,> 100 µM,36.4 µM,,44.4 µM,,42.9 µM,,,,,,,,,
Oc1c(C(Nc2cccc3ccccc23)c2ccccc2)ccc2cccnc12 (stereo not given),16 µM,13.7 µM,19.1 µM,> 100 µM,> 100 µM,> 100 µM,> 100 µM,,17.7 µM,4.17 µM,2.42 µM,1.92 µM,3.12 µM,3.8 µM,4.9 µM,2.41 µM,2.95 µM,
CN(Cc1cnc(N)nc1N)c1ccc(C(=O)O)cc1,> 100 µM,> 100 µM,> 100 µM,,> 100 µM,> 100 µM,> 100 µM,> 100,> 100 µM,> 100 µM,> 100 µM,> 100 µM,> 100 µM,,> 100 µM,> 100 µM,> 100 µM,> 100 µM
